From patent US20240327415A1, “Multicomponent Complexes, Including Salts, Crystalline Forms, and Hydrates and Solvates of ENT1 Inhibitors” (iTeos Belgium SA, priority 2023, published 2024)
Blank lines part the entries; values can stand above or below the molecule they belong to.

What was measured:
Format in all cases: physicochemical
[1] = salt screen, XRPD of damp, dried and 40° C./75% RH stored samples (Salt Preparation Methods 1 and 2); design: key to XRPD Analysis Damp/Dry: A = amorphous; Evap. = isolated via evaporation; settings: Benzenesulfonic acid, 1 equiv.; IPA:H2O (75:25% v/v); AS tBME; (evap.)
Protocol: (§1) Salt Preparation Method 1: Approximately 25 mg of Compound 1 (free base) was weighed out into 1.5 mL screw-cap vials and a stirrer bar was added. For solid counterions, the appropriate amount of acid (1.0 or 2.0 equiv.) was weighed into separate 1.5 mL screw-cap vials. 100 μL of the appropriate solvent system was added to both the Compound 1 and the solid counterions. Stock solutions of liquid counterions were prepared, such that 100 μL contained 1.0 or 2.0 equiv. of acid. See counterion and solvent lists in Table 60 and Table 61 respectively.
(§2) The samples were stirred at 40° C. for 5-10 min and then the acid solutions were added to Compound 1, rinsing out the transfer vial with a further 50 μL of solvent. […] Experiments were temperature cycled between 40° C. and 5° C. (1 h hold; 0.1° C./min ramp/cool) for ca. 24-68 h. Anti-solvent addition (ASA) was carried out to slurries at 5° C. then experiments were heated to 30° C. over 1 h. ASA was carried out at 30° C. or 40° C. where clear solutions or gums were observed.
(§3) Temperature cycling was then continued for ca. 16-69 h, followed by further ASA and temperature cycling if required. Material was isolated at 5° C. and analyzed damp by XRPD. All isolated material was dried under vacuum at ca. 40° C. for ca. 17-91 h then re-analyzed by XRPD. The XRPD plate was stored at 40° C./75% RH for 24-48 h and then samples re-analyzed. Solutions were stored uncapped at ambient temperature to evaporate. Any residual solids were analyzed by XRPD.
(§4) Salt Preparation Method 2: The general procedure adopted in preparing the potential salts is outlined below. A known mass of Compound 1 (free base) and a known volume of the appropriate solvent system were added to 20 mL scintillation vials. The required mol. equiv. of the appropriate counterions were added to the vials as solutions or slurries in the corresponding solvent system.
(§5) The experiments were stirred at 40° C. for ca. 1 h, and then temperature cycled between 40° C. and 5° C. with 0.1° C./min ramp and 1 h hold between each step. Anti-solvent additions and subsequent slurrying at 5° C. were employed in order to facilitate crystallization. […] The damp and dried solids were subsampled and analyzed by XRPD. Where applicable, the dried solids were stored at 40° C./75% RH for 24-48 h in order to improve the crystallinity and/or facilitate solid form conversion to the desired form.

[2] = as above; design: key: A = amorphous; Evap. = isolated via evaporation
Protocol: as §1, §2, §3, §4, §5

[3] = seven-day solid stability studies (ambient; 40° C./75% RH; 80° C.), XRPD and HPLC; design: key to XRPD Analysis: Amorphous Compound 1 (free base); Crystalline Form 1 Compound 1 (free base); settings: for degradation by HPLC: after 7 days storage at 40° C./75% RH and ambient conditions; for decrease in purity by HPLC: after 7 days storage at 80° C.
Protocol: In the experiment, one set of vials was exposed to ambient light, temperature and humidity conditions. Another was exposed openly to 40° C. and 75% RH conditions and a third was sealed and exposed to 80° C. conditions. After 7 days, XRPD and HPLC measurements were collected.
Example 12-Stability Studies of Amorphous Compound 1 (free base) and Crystalline Form 1 Compound 1 (free base): Seven-day stability studies were carried out comparing amorphous Compound 1 (free base) and crystalline Form 1 Compound 1 (free base) at 40° C./75% RH, under ambient conditions and at 80° C. After storage at 40° C./75% RH and 80° C., the amorphous material formed glassy solids which were pale yellow (40° C./75% RH) or orange (80° C.). It is likely that the material melted and re-solidified at 80° C. and deliquesced at 40° C./75% RH. […] (decrease in purity of ca. 11% area).
Example 15-Stabilities Studies-Crystalline Form 3 Compound 1 di(hydrogen sulfate) and Crystalline Form 4 Compound 1 mono(hydrogen sulfate): Seven-day stability studies were carried out on the prepared crystalline Form 3 Compound 1 di(hydrogen sulfate) and crystalline Form 4 Compound 1 mono(hydrogen sulfate) using the following conditions: (1) Ambient light, temperature and humidity conditions (open vial); (2) 40° C./75% RH (open vial); and (3) 80° C. (closed vial). After 7 days of storage under the specified conditions, XRPD and HPLC analyses were carried out on the residual solid materials, and the results are summarized in Table 51.
Example 18-Seven Day Stability Study on Crystalline Form 2 Compound 1 di(hydrogen sulfate) trihydrate: A 7-day stability study was conducted on crystalline Form 2 Compound 1 di(hydrogen sulfate) trihydrate using the following conditions: (1) ambient light, temperature, and humidity conditions (open vial); (2) 40° C., 75% RH (open vial); and (3) 80° C. (closed vial). After 7 days of storage under the specified, XRPD and HPLC analyses were carried out on the residual solid materials.

[4] = Dynamic Vapor Sorption (DVS)
Protocol: (§6) METHOD A: In Example 11, approximately 5-15 mg of sample was placed into a mesh vapor sorption balance pan and loaded into either a DVS Intrinsic or DVS Advantage dynamic vapor sorption balance by Surface Measurement Systems. The sample was subjected to a ramping profile from 40-90% relative humidity (RH) at 10% increments, maintaining the sample at each step until a stable weight had been achieved (dm/dt 0.004%, minimum step length 30 minutes, maximum step length 500 minutes) at 25° C. After completion of the sorption cycle, the sample was dried using the same procedure to 0% RH and then a second sorption cycle back to 40% RH was carried out. Two cycles were performed. The weight change during the sorption/desorption cycles were plotted, allowing the hygroscopic nature of the sample to be determined. XRPD analysis was then carried out on the residual solid.
as §6, with “B:” for “A:”, “Examples 2A, 3, 14, and 17,” for “Example 11,”, “10-20” for “5-15”, “determined.” for “determined. XRPD analysis was then carried out on the residual solid.”
as §6, with “Approximately 10-20” for “METHOD A: In Example 11, approximately 5-15”, “RH” for “relative humidity (RH)”, “min,” for “minutes,”, “min)” for “minutes)”, “determined.” for “determined. XRPD analysis was then carried out on the residual solid.”

[5] = Benzenesulfonic acid, 1 equiv., Acetonitrile, AS tBME
[6] = Benzenesulfonic acid, 1 equiv., Ethanol, AS Heptane
[7] = Benzenesulfonic acid, 1 equiv., Ethyl acetate, AS Heptane
[8] = Benzenesulfonic acid, 1 equiv., MEK, AS Heptane
[9] = Benzenesulfonic acid, 1 equiv., THF, AS Heptane
[10] = Hydrochloric acid, 1 equiv., Acetonitrile, AS tBME, (evap.)
[11] = Hydrochloric acid, 1 equiv., Ethanol*, AS Heptane, (evap.)
[12] = Hydrochloric acid, 1 equiv., Ethyl acetate, AS Heptane
[13] = Hydrochloric acid, 1 equiv., IPA:H2O (75:25% v/v), AS tBME, (evap.)
[14] = Hydrochloric acid, 1 equiv., MEK, AS Heptane
[15] = Hydrochloric acid, 1 equiv., THF, AS Heptane
[16] = Benzenesulfonic acid, 2 equiv., Acetonitrile, AS tBME
[17] = Benzenesulfonic acid, 2 equiv., Ethanol, AS Heptane
[18] = Benzenesulfonic acid, 2 equiv., Ethyl acetate, AS Heptane
[19] = Benzenesulfonic acid, 2 equiv., IPA:H2O (75:25), AS tBME
[20] = Benzenesulfonic acid, 2 equiv., MEK, AS Heptane
[21] = Benzenesulfonic acid, 2 equiv., THF, AS Heptane

XRPD Analysis Damp/Dry [1]: A (evap.)
XRPD Analysis 40° C. 75% RH [2, 5]: A
XRPD Analysis Damp [2, 5]: A
XRPD Analysis Dry [2, 5]: A
XRPD Analysis 40° C. 75% RH [2, 6]: A
XRPD Analysis Damp [2, 6]: A
XRPD Analysis Dry [2, 6]: A
XRPD Analysis 40° C. 75% RH [2, 7]: A
XRPD Analysis Damp [2, 7]: A
XRPD Analysis Dry [2, 7]: A
XRPD Analysis 40° C. 75% RH ([2]; Benzenesulfonic acid, 1 equiv., IPA:H2O (75:25% v/v), AS tBME): A
XRPD Analysis 40° C. 75% RH [2, 8]: A
XRPD Analysis Damp [2, 8]: A
XRPD Analysis Dry [2, 8]: A
XRPD Analysis 40° C. 75% RH [2, 9]: A
XRPD Analysis Damp [2, 9]: A
XRPD Analysis Dry [2, 9]: A
SMILES: O=S(=O)(O)c1ccccc1 [Benzenesulfonic acid, 1 equiv.]

SMILES: COc1cc(C(=O)O[C@@H]2CCCOc3cc(cc(OC)c3OC)C(=O)NCCCN3CCCN(CC2)CC3)cc(OC)c1OC.O=S(=O)(O)O [Form 4 mono(hydrogen sulfate)]
HPLC ([3]; 7 days, 40° C./75% RH (open vial)): 99.87 % area
HPLC ([3]; 7 days, 40° C./75% RH, open vial): 99.87 % area
HPLC ([3]; 7 days, 80° C. (closed vial)): 99.64 % area
XRPD ([3]; 7 days, 80° C. (closed vial)): Amorphous*
HPLC ([3]; 7 days, 80° C., sealed): 99.64 % area
XRPD ([3]; 7 days, 80° C., sealed): Amorphous*
HPLC ([3]; 7 days, Ambient (open vial)): 99.89 % area
HPLC ([3]; 7 days, Ambient, open vial): 99.89 % area
HPLC ([3]; Input sample): 99.66 % area

SMILES: COc1cc(C(=O)O[C@@H]2CCCOc3cc(cc(OC)c3OC)C(=O)NCCCN3CCCN(CC2)CC3)cc(OC)c1OC [Form 1 Compound 1]
XRPD Analysis ([3]; 7 days, 40° C./75% RH): A
Post-Storage Observations ([3]; 7 days, 80° C.): Orange glassy
Solid Purity ([3]; 7 days, 80° C.): 84.1 % area
XRPD Analysis ([3]; 7 days, 80° C.): 1
Post-Storage Observations ([3]; 7 days, Ambient): White solid
Solid Purity ([3]; 7 days, Ambient): 99.9 % area
XRPD Analysis ([3]; 7 days, Ambient): A

SMILES: Cl [Hydrochloric acid, 1 equiv.]
XRPD Analysis 40° C. 75% RH ([2]; Hydrochloric acid, 1 equiv., Acetonitrile, AS tBME): A
XRPD Analysis Damp [2, 10]: A
XRPD Analysis Dry [2, 10]: A
XRPD Analysis 40° C. 75% RH ([2]; Hydrochloric acid, 1 equiv., Ethanol*, AS Heptane): A
XRPD Analysis Damp [2, 11]: A
XRPD Analysis Dry [2, 11]: A
XRPD Analysis 40° C. 75% RH [2, 12]: A
XRPD Analysis Damp [2, 12]: A
XRPD Analysis Dry [2, 12]: A
XRPD Analysis 40° C. 75% RH ([2]; Hydrochloric acid, 1 equiv., IPA:H2O (75:25% v/v), AS tBME): A
XRPD Analysis Damp [2, 13]: A
XRPD Analysis Dry [2, 13]: A
XRPD Analysis 40° C. 75% RH [2, 14]: A
XRPD Analysis Damp [2, 14]: A
XRPD Analysis Dry [2, 14]: A
XRPD Analysis 40° C. 75% RH [2, 15]: A
XRPD Analysis Damp [2, 15]: A
XRPD Analysis Dry [2, 15]: A

SMILES: COc1cc(C(=O)O[C@@H]2CCCOc3cc(cc(OC)c3OC)C(=O)NCCCN3CCCN(CC2)CC3)cc(OC)c1OC [amorphous Compound 1 (free base)]
Post-Storage Observations ([3]; 7 days, 40° C./75% RH): Pale yellow
Solid Purity ([3]; 7 days, 40° C./75% RH): 98.8 % area
XRPD Analysis ([3]; 7 days, 40° C./75% RH): A
Post-Storage Observations ([3]; 7 days, 80° C.): Orange glassy
Solid Purity ([3]; 7 days, 80° C.): 87.5 % area
XRPD Analysis ([3]; 7 days, 80° C.): A
Post-Storage Observations ([3]; 7 days, Ambient): White solid
Solid Purity ([3]; 7 days, Ambient): 98.9 % area
XRPD Analysis ([3]; 7 days, Ambient): A
solid form by XRPD after storage ([3]; 7 days, all storage conditions): remained amorphous
degradation by HPLC [3]: no significant degradation
decrease in purity by HPLC [3]: ca. 11 % area
Input Material Purity ([3]; before storage): 98.8 % area
hygroscopicity ([4]; 25° C.): hygroscopic

XRPD Analysis 40° C. 75% RH [2, 16]: A
XRPD Analysis Damp [2, 16]: A
XRPD Analysis Dry [2, 16]: A
XRPD Analysis 40° C. 75% RH [2, 17]: A
XRPD Analysis Damp [2, 17]: A
XRPD Analysis Dry [2, 17]: A
XRPD Analysis 40° C. 75% RH [2, 18]: A
XRPD Analysis Damp [2, 18]: A
XRPD Analysis Dry [2, 18]: A
XRPD Analysis 40° C. 75% RH [2, 19]: A
XRPD Analysis Damp [2, 19]: A
XRPD Analysis Dry [2, 19]: A
XRPD Analysis 40° C. 75% RH [2, 20]: A
XRPD Analysis Damp [2, 20]: A
XRPD Analysis Dry [2, 20]: A
XRPD Analysis 40° C. 75% RH [2, 21]: A
XRPD Analysis Damp [2, 21]: A
XRPD Analysis Dry [2, 21]: A
SMILES: O=S(=O)(O)c1ccccc1 [Benzenesulfonic acid, 2 equiv.]

SMILES: COc1cc(C(=O)O[C@@H]2CCCOc3cc(cc(OC)c3OC)C(=O)NCCCN3CCCN(CC2)CC3)cc(OC)c1OC [crystalline Form 1 Compound 1 (free base)]
solid form by XRPD after storage ([3]; 7 days, 40° C./75% RH): amorphous material was recovered
solid form by XRPD after storage ([3]; 7 days, 80° C.): amorphous material was recovered
solid form by XRPD after storage ([3]; 7 days, ambient conditions): retained
degradation by HPLC [3]: no significant degradation
decrease in purity by HPLC [3]: ca. 15 % area
hygroscopicity ([4]; 25° C.): slightly hygroscopic
post-DVS sample (XRPD / appearance) ([4]; DVS at 25° C.): predominantly amorphous material was recovered
moisture uptake (DVS) ([4]; at 80% RH, second sorption cycle, after likely formation of amorphous material): 3.3%
moisture uptake (DVS) ([4]; between 40-80% RH, first sorption cycle, 25° C.): 0.9%
moisture uptake (DVS) ([4]; between 80-90% RH, 25° C.): 3.8%
